Results reported in patent publication US20070207160A1, “Apoptosis inhibitors” (priority 1994, published 2007).

Assays:
Format in all cases: cell-based
L 29-APO-1 cells = test: Inhibition of apoptosis induced by an anti-APO-1 antibody using DCI (MTT assay); settings: DCI 45 μM or 15 μM, 1 hour before anti-APO-1 antibody for 7 hours, FIG. 2B
Protocol: FIG. 2B depicts the inhibition of apoptosis by DCI. L 29-APO-1 cells were incubated with DCI (●45μM, ▴15 μM) or without DCI (◯). After one hour, anti-APO-1 antibody was added in the amounts indicated in FIG. 2B and allowed to remain on the cells for 7 hours. The percentage cell death was determined by formazan production from diphenyltetrazolium salt (MTT assay).

[1] = tested on: L 29-APO-1 cells and SKW 6.4 cells; test: Inhibition of apoptosis induced by an anti-APO-1 antibody using YVAD-CHO (DNA fragmentation, Hoechst dye 33342, FACS); settings: permeabilized L 29-APO-1 and SKW 6.4 cells, YVAD-CHO 30 minutes, then anti-APO-1 antibodies 1 μg/ml for 60 minutes; FIG. 2C
Protocol: FIG. 2C depicts the inhibition of apoptosis by YVAD-CHO.
L 29-APO-1 cells (◯) and SKW 6.4 cells (●) were permeabilized by a short hypotonic shock and incubated with the indicated concentrations of YVAD-CHO indicated in FIG. 2C for 30 minutes. The cells were incubated with anti-APO-1 antibodies (1 μg/ml) for 60 minutes. Apoptosis was determined by measuring a DNA fragmentation using the Hoechst dye 33342 (Molecular Probes Eugene, Oreg.). Data of specific cell death (cell death in the presence of an anti-APO-1 antibody minus cell death in the absence of such an antibody) was obtained from triple measurements by using an FACS Vantage flow cytometer. Spontaneous cell death in the absence of an anti-APO-1 antibody was less than 7%.

SKW 6.4 cells = test: Inhibition of apoptosis induced in SKW 6.4 cells by anti-APO-1 antibody; settings: SKW 6.4 cells incubated with anti-APO-1 antibody (20 ng/ml) and varying amounts of inhibitor for 24 hours, FIG. 1
Protocol: FIG. 1 depicts the inhibition of apoptosis induced in SKW6.4 cells by means of anti-APO-1 antibodies (20 ng/ml) by human APO-1-Ig and anti-APO-1F(ab′)2, respectively.
SKW 6.4 cells (Oehm et al, supra) are apoptosis-positive cells, i.e. apoptosis can be induced therein, e.g. by binding an anti-APO-1 antibody.
SKW 6.4 cells were incubated with an anti-APO-1 antibody in the presence of varying amounts of the fusion protein of Example 1 (human APO-1-Ig) and of anti-APO-1-F(ab)2 (see above), respectively, for 24 hours. The inhibition of apoptosis was determined. See, FIG. 1.

O=c1oc(Cl)c(Cl)c2ccccc12 [DCI, 3,4-dichloroisocoumarin] was tested, and the “inhibition of apoptosis induced by an anti-APO-1 antibody (percentage cell death, MTT assay)” value (L 29-APO-1 cells) was “can be inhibited”.

In the case of YVAD-CHO, the “inhibition of apoptosis induced by an anti-APO-1 antibody (specific cell death, DNA fragmentation)” value [1] is reported as “can be inhibited”.

B1: fused portion of Example 1: Fusion protein in which an extracellular APO-1 domain is fused via an antibody-hinge region to an Fc portion of a human antibody (protein)
chain: QVTDINSKGLELRKTVTTVETQNLEGLHHDGQFCHKPCPPGERKARDCTVNGDEPDCVPCQEGKEYTDKAHFSSKCRRCRLCDEGHGLEVEINCTRTQNTKCRCKPNFFCNSTVCEHCDPCTKCEHGIIKECTLTSNTKCKEEGSRSN
modifications: left off: a dimerising Fc or GST
notes: Fusion protein in which an extracellular APO-1 domain is fused via an antibody-hinge region to an Fc portion of a human antibody
With B1 the inhibition of apoptosis (SKW 6.4 cells) was “strong apoptosis-inhibiting effect” and the inhibition of apoptosis (SKW 6.4 cells; listed as fusion protein) was “especially strong”.
